“Also recorded” adds a separate entry of the source.
Test system: mixed Gram-negative bacteria
Experiment: Minimum inhibitory concentration testing (biostat candidate screening, Phase 1 and Phase 2; dip slide counts)
Type: cell-based
Settings: for Differential Value Scores, Average / Differential Value Scores, Round 1 / Differential Value Scores, Round 2 / Differential Value Scores, Round 3: Phase 1, scale 0-6, 3 = matches DCHA standard; for Differential Value Scores, Average: average of Rounds 1-3; for Differential Value Scores, Round 1 / Differential Value Scores, Round 2 / Differential Value Scores, Round 3: log bacterial counts at 24 and 48 h versus DCHA standard, higher = better; for Biostatic efficacy regarding Gram-negative bacteria compared with the DCHA standard: result in words, 3 wt. % amine in metal working fluid
[1] = Phase 2, Round 1, dilution 3 %, 24 hours
[2] = Phase 2, Round 1, dilution 3 %, 48 hours
[3] = Phase 2, Round 1, dilution 4 %, 24 hours
[4] = Phase 2, Round 1, dilution 4 %, 48 hours
[5] = Phase 2, Round 1, dilution 5 %, 24 hours
[6] = Phase 2, Round 1, dilution 5 %, 48 hours
[7] = Phase 2, Round 2, dilution 4 %, 24 hours
[8] = Phase 2, Round 2, dilution 4 %, 48 hours
[9] = Phase 2, Round 2, dilution 5 %, 24 hours
[10] = Phase 2, Round 2, dilution 5 %, 48 hours
[11] = Phase 2, Round 2, dilution 6 %, 24 hours
[12] = Phase 2, Round 2, dilution 6 %, 48 hours

Compound	Differential Value Scores, Average	Differential Value Scores, Round 1	Differential Value Scores, Round 2	Differential Value Scores, Round 3	Amount of new Gram-negative bacteria colonies [2]	Amount of new Gram-negative bacteria colonies [8]	Amount of new Gram-negative bacteria colonies [10]	Amount of new Gram-negative bacteria colonies [12]	further results
NCC1CCCC(CN)C1 (stereo not shown) [C2, 1,3-bis(aminomethyl)cyclohexane]	2.5	2.5	4	1	–	–	–	–	–
NC1CCCCC1N (stereo not shown) [C3, 1,2-cyclohexanediamine]	2.3	2	4	1	–	–	–	–	Biostatic efficacy regarding Gram-negative bacteria compared with the DCHA standard (listed as Comparative Example 3): performed below the DCHA standard
CC1CCCCC1N (stereo not shown) [C5, 2-methylcyclohexylamine]	1.7	1	2.5	1.5	–	–	–	–	–
CCNC1CCCCC1 [C6, N-ethylcyclohexylamine]	1.7	1.5	2.5	1	–	–	–	–	–
NC1CCCCC1 [C7, Cyclohexylamine]	1.5	1	2.5	1	–	–	–	–	–
NCC1CCCCC1 [C8, Aminomethylcyclohexane]	1.5	1	2.5	1	–	–	–	–	–
CCCCC(CC)CN(CC(CC)CCCC)CC(CC)CCCC (stereo not shown) [C9, Tris(2-ethylhexylamine)]	–	–	–	–	10^7	10^7	10^7	10^7	Amount of new Gram-negative bacteria colonies [1]: 10^7; Amount of new Gram-negative bacteria colonies [3]: 10^5; Amount of new Gram-negative bacteria colonies [4]: 10^7; Amount of new Gram-negative bacteria colonies [5]: 10^4; Amount of new Gram-negative bacteria colonies [6]: 10^7; Amount of new Gram-negative bacteria colonies [7]: 10^3; Amount of new Gram-negative bacteria colonies [9]: 10^2; Amount of new Gram-negative bacteria colonies [11]: 10^2
CCC(N)CCN (stereo not shown) [C10, 1,3-pentanediamine]	–	–	–	–	10^7	10^7	10^7	10^7	Amount of new Gram-negative bacteria colonies [1]: 10^7; Amount of new Gram-negative bacteria colonies [3]: 10^5; Amount of new Gram-negative bacteria colonies [4]: 10^7; Amount of new Gram-negative bacteria colonies [5]: 10^3; Amount of new Gram-negative bacteria colonies [6]: 10^7; Amount of new Gram-negative bacteria colonies [7]: 10^2; Amount of new Gram-negative bacteria colonies [9]: 10^2; Amount of new Gram-negative bacteria colonies [11]: 10^2
NC1CCC(CC2CCC(N)CC2)CC1 (stereo not shown) [C11, 4,4′-methylene bis(cyclohexylamine)]	–	–	–	–	10^7	10^7	10^7	10^7	Amount of new Gram-negative bacteria colonies [1]: 10^7; Amount of new Gram-negative bacteria colonies [3]: 10^5; Amount of new Gram-negative bacteria colonies [4]: 10^7; Amount of new Gram-negative bacteria colonies [5]: 10^5; Amount of new Gram-negative bacteria colonies [6]: 10^7; Amount of new Gram-negative bacteria colonies [7]: 10^2; Amount of new Gram-negative bacteria colonies [9]: 10^2; Amount of new Gram-negative bacteria colonies [11]: 10^2
CN(C)CCCN(C)CCCN(C)C [C13, N,N,N′,N″,N″-pentamethyl-dipropylenetriamine]	–	–	–	–	10^7	10^7	10^7	10^7	Amount of new Gram-negative bacteria colonies [1]: 10^7; Amount of new Gram-negative bacteria colonies [3]: 10^7; Amount of new Gram-negative bacteria colonies [4]: 10^7; Amount of new Gram-negative bacteria colonies [5]: 10^3; Amount of new Gram-negative bacteria colonies [6]: 10^7; Amount of new Gram-negative bacteria colonies [7]: 10^2; Amount of new Gram-negative bacteria colonies [9]: 10^2; Amount of new Gram-negative bacteria colonies [11]: 10^2
CN(C)CCN(C)CCN(C)C [C14, Pentamethyldiethylene triamine]	–	–	–	–	10^7	10^7	10^7	10^7	Amount of new Gram-negative bacteria colonies [1]: 10^7; Amount of new Gram-negative bacteria colonies [3]: 10^7; Amount of new Gram-negative bacteria colonies [4]: 10^7; Amount of new Gram-negative bacteria colonies [5]: 10^7; Amount of new Gram-negative bacteria colonies [6]: 10^7; Amount of new Gram-negative bacteria colonies [7]: 10^3; Amount of new Gram-negative bacteria colonies [9]: 10^2; Amount of new Gram-negative bacteria colonies [11]: 10^3
NCCCCCCN [Comparative Example C1, 1,6-diaminohexane]	2.5	2	4	1.5	–	–	–	–	–
CCCCCN [Comparative Example C4, Amylamine]	1.7	1.5	2.5	1	–	–	–	–	Biostatic efficacy regarding Gram-negative bacteria compared with the DCHA standard: worse biostatic capabilities than the DCHA control
CC(C)CCCC(C)N (stereo not shown) [Example 1, 1,5-dimethylhexylamine]	4.3	4.5	4	4.5	–	–	–	–	–
CCCCC(CC)CN (stereo not shown) [Example 2, 2-ethylhexylamine]	4.3	4	4.5	4.5	–	–	–	–	–
CCCCCCCN [Example 3, Heptylamine]	4.2	4	4	4.5	–	–	–	–	Biostatic efficacy regarding Gram-negative bacteria compared with the DCHA standard: better biostatic performance than the DCHA control
NC1CCC(N)CC1 (stereo not shown) [Example 4, 1,4-cyclohexanediamine]	3.7	4	4.5	2.5	–	–	–	–	Biostatic efficacy regarding Gram-negative bacteria compared with the DCHA standard: better biostatic performance than the DCHA standard
CCCCCCCCN [Example 6, Octylamine]	–	–	–	–	–	–	–	–	Biostatic efficacy regarding Gram-negative bacteria compared with the DCHA standard: surpassed the DCHA standard; also recorded: better biostatic performance than the DCHA control
NCCN(CCN)CCN [Example 7, Tris(2-aminoethyl)amine]	–	–	–	–	10^3	10^2	10^2	10^2	Biostatic efficacy regarding Gram-negative bacteria compared with the DCHA standard: surpassed the DCHA standard

From US11034913B2, “Metal working fluid” (Henkel AG & Co. KGaA, priority 2015, dated 2021)
